Reference: patent US20090203744A1, “NOVEL PYRIDINE DERIVATIVES” (priority 2005, published 2009)

system: Streptozotocin induced diabetic mice; experiment: Antidiabetic activity in Streptozotocin induced diabetic mice; format: in vivo; settings: plasma, 50 mg/kg oral for 7 days, fasted 6 hours, compared to control group
Description: Male Swiss albino mice were used in the study at the age of 10 weeks. Diabetes was induced in animals by injecting Streptozotocin by i.p. route at a dose of 200-mg/kg-body weight. 48 hours after Streptozotocin administration, the animals were kept for fasting for 6 hours and blood was collected and plasma separated and glucose was estimated. Animals showing greater than 200 mg/dl glucose levels were considered as diabetic and these animals were randomly distributed into various groups. The compounds listed in the table 2 were administered at a dose of 50-mg/kg body weight by oral route for 7 days. Later animals were fasted for 6 hours and blood was collected and plasma separated. Biochemical estimations like glucose, cholesterol and triglycerides were carried out using the plasma. The effect of compounds mentioned in the table was expressed in terms of percentage reduction in biochemical values as compared to control group.

First: CN1C(=O)OC[C@@H]1Cc1ccc(Oc2ccc(Nc3ncccc3C#N)cc2F)cc1 [Example 22, 2-{[3-fluoro-4-(4-{[(4S)-3-methyl-2-oxo-1,3-oxazolidin-4-yl]methyl}phenoxy)phenyl]amino}nicotinonitrile]
Second: CN(c1ccc(Oc2ccc(C[C@H]3COC(=O)N3C)cc2)cc1)c1ncccc1C#N [Example 45, (4S)-2-[methyl(4-{4-[(3-methyl-2-oxo-1,3-oxazolidin-4-yl)methyl]phenoxy}phenyl)amino]nicotinonitrile]
The “% Reduction Triglyceride” value of the first is lower: 5.2% for the first, 53.8% for the second.

For `CCN(c1ccc(Oc2ccc(C[C@H]3COC(=O)N3CC)cc2)cc1)c1ncccc1C#N` [Example 24, (4S)-2-[ethyl(4-{4-[(3-ethyl-2-oxo-1,3-oxazolidin-4-yl)methyl]phenoxy}phenyl)amino]nicotinonitrile], the “% Reduction Triglyceride” value was 13.7%.

Compared with `CCN(c1ccc(Oc2ccc(C[C@H]3COC(=O)N3CC)cc2)cc1)c1ncccc1C#N` [Example 24, (4S)-2-[ethyl(4-{4-[(3-ethyl-2-oxo-1,3-oxazolidin-4-yl)methyl]phenoxy}phenyl)amino]nicotinonitrile], `CN(c1ccc(Oc2ccc(C[C@H]3COC(=O)N3C)cc2)cc1)c1ncccc1C#N` [Example 45, (4S)-2-[methyl(4-{4-[(3-methyl-2-oxo-1,3-oxazolidin-4-yl)methyl]phenoxy}phenyl)amino]nicotinonitrile] is lower in “% Reduction Cholesterol” value: 15.9% for the first, 10% for the second.

For `CN(c1ccc(Oc2ccc(C[C@H]3COC(=O)N3C)cc2)cc1)c1ncccc1C#N` [Example 45, (4S)-2-[methyl(4-{4-[(3-methyl-2-oxo-1,3-oxazolidin-4-yl)methyl]phenoxy}phenyl)amino]nicotinonitrile], the “% Reduction Glucose” value was 39%.

system: 3T3-L1 cells; experiment: Glucose uptake assay using 3T3-L1 cells; format: cell-based; settings: differentiated 3T3-L1 adipocytes, 1 μM, 72 hours, 14C deoxyglucose uptake for 10 minutes; with reference to stimulation index of BLX-1002
Description: 3T3-L1 cells were differentiated by the addition of differentiation cocktail (72 μg/ml insulin, 0.5 mM IBMX, 400 ng/ml Dexamethasone) for 4 days and later fed with media without differentiation cocktail for 7-8 days. After differentiation the cells were incubated with the either the reference compound BLX-1002 or compounds listed in the table 1 at 1 μM concentrations for 72 hours and carried out the glucose uptake assay for 10 minutes by the addition of KRP buffer supplemented with 2.5 μCi/ml ^14C deoxy glucose. Stimulation Index is defined as the amount of ^14C Deoxyglucose uptake induced by 1 μM of BLX-1002 incubated for 72 hours in an assay condition as per protocol described above with differentiated 3T3-L1 adipocytes. Values of compounds mentioned in table-1 are with reference to stimulation index of reference compound BLX-1002.

Going from `CN1C(=O)OC[C@@H]1Cc1ccc(Oc2ccc(Nc3ccccn3)cc2)cc1` [Example 1, 3-methyl-4-{4-[4-(pyridin-2-ylamino)phenoxy]benzyl}-1,3-oxazolidin-2-one] to `CN1C(=O)OC[C@@H]1Cc1ccc(Oc2ccc(Nc3ccc([N+](=O)[O-])cn3)cc2)cc1` [Example 2, (4S)4-(4-{4-[(5-nitropyridin-2-yl)amino]phenoxy}benzyl)-3-methyl-1,3-oxazolidin-2-one], the “Stimulation Index” value rises from 0.827 to 0.935.

First: CCN1C(=O)OC[C@@H]1Cc1ccc(Oc2ccc(Nc3ncccc3[N+](=O)[O-])cc2F)cc1 [Example 12, (4S)-4-[4-(2-fluoro-4-{[3-nitropyridin-2-yl]amino}phenoxy)benzyl]-3-ethyl-1,3-oxazolidin-2-one]
Second: CCN1C(=O)OC[C@@H]1Cc1ccc(Oc2ccc(Nc3ncccc3C#N)cc2F)cc1 [Example 13, 2-{[3-fluoro-4-(4-{[(4S)-3-ethyl-2-oxo-1,3-oxazolidin-4-yl]methyl}phenoxy)phenyl]amino}nicotinonitrile]
The “Stimulation Index” value of the first is higher: 0.935 for the first, 0.874 for the second.

Compared with `CCN1C(=O)OC[C@@H]1Cc1ccc(Oc2ccc(Nc3ncccc3C#N)cc2)cc1` [Example 14, 2-[(4-{4-[(3-ethyl-2-oxo-1,3-oxazolidin-4-yl)methyl]phenoxy}phenyl)amino]nicotinonitrile], `CCN1C(=O)OC[C@@H]1Cc1ccc(Oc2ccc(Nc3ccccn3)cc2F)cc1` [Example 8, (4S)-4-[4-(2-fluoro-4-{[5-pyridin-2-yl]amino}phenoxy)benzyl]-3-ethyl-1,3-oxazolidin-2-one] is higher in “Stimulation Index” value: 0.827 for the first, 1.049 for the second.
